Assay results from ChEMBL document CHEMBL1201862, “PubChem BioAssay data set” (2004).
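Exposure lasted 48 hours, with cells grown in 96-well plates and compounds tested at five concentrations. GI50: concentration for 50% inhibition of growth.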 Activity calls are given as the source filed them. Cut-off read from the data, not from the text of the source: active = GI50 up to about 1.1 µM and inactive = higher.

What was measured:
Experiment in all cases: NCI tumour cell line growth inhibition, 48 h
[1] = system: UO-31
[2] = system: RXF 393
[3] = system: CAKI-1
[4] = system: K562
[5] = system: A498
[6] = system: SR
[7] = system: Hs-578T
[8] = system: SNB-75
[9] = system: 786-0
[10] = system: U-251
[11] = system: NCI-H23
[12] = system: SN12C
[13] = system: NCI/ADR-RES
[14] = system: MDA-MB-435
[15] = system: UACC-257
[16] = system: RPMI-8226
[17] = system: COLO 205
[18] = system: DU-145
[19] = system: MCF7
[20] = system: ACHN
[21] = system: NCI-H460
[22] = system: HCT-15
[23] = system: SF-539
[24] = system: NCI-H226
[25] = system: OVCAR-4
[26] = system: HL-60
[27] = system: HOP-92
[28] = system: EKVX
[29] = system: HCC 2998
[30] = system: HCT-116
[31] = system: IGROV-1
[32] = system: OVCAR-3
[33] = system: UACC-62
[34] = system: CCRF-CEM
[35] = system: NCI-H522
[36] = system: OVCAR-5
[37] = system: SNB-19
[38] = system: SK-MEL-28
[39] = system: SK-OV-3
[40] = system: M14
[41] = system: SF-268
[42] = system: MOLT-4
[43] = system: SF-295
[44] = system: A549
[45] = system: KM12
[46] = system: SK-MEL-2
[47] = system: LOX IMVI
[48] = system: SW-620
[49] = system: BT-549
[50] = system: HT-29
[51] = system: TK-10
[52] = system: HOP-62
[53] = system: Malme-3M
[54] = system: MDA-MB-231
[55] = system: PC-3
[56] = system: OVCAR-8
[57] = system: T47D
[58] = system: SK-MEL-5
[59] = system: MDA-N

## O=C1c2ccccc2-c2c1c1ccccc1c(=O)n2-c1ccccc1
[1]
  GI50: 5.64 µM (inactive)
[2]
  GI50: 4.59 µM (inactive)
[3]
  GI50: 11.8 µM (inactive)
[4]
  GI50: > 60.1 µM (inactive)
[5]
  GI50: 16.6 µM (inactive)
[6]
  GI50: > 100 µM (inactive)
[7]
  GI50: 8.36 µM (inactive)
[8]
  GI50: 13.1 µM (inactive)
[9]
  GI50: 3.07 µM (inactive)
[10]
  GI50: 9.18 µM (inactive)
[11]
  GI50: 11.6 µM (inactive)
[12]
  GI50: 16.4 µM (inactive)
[13]
  GI50: 5.48 µM (inactive)
[14]
  GI50: > 100 µM (inactive)
[15]
  GI50: > 82.4 µM (inactive)
[16]
  GI50: > 100 µM (inactive)
[17]
  GI50: > 46.5 µM (inactive)
[18]
  GI50: 59.7 µM (inactive)
[19]
  GI50: 19.3 µM (inactive)
[20]
  GI50: 5.09 µM (inactive)
[21]
  GI50: 6.56 µM (inactive)
[22]
  GI50: 27.9 µM
[23]
  GI50: 4.91 µM (inactive)
[24]
  GI50: 12.2 µM (inactive)
[25]
  GI50: 2.86 µM (inactive)
[26]
  GI50: > 33 µM (inactive)
[27]
  GI50: 26.9 µM (inactive)
[28]
  GI50: 23.3 µM (inactive)
[29]
  GI50: 66.4 µM (inactive)
[30]
  GI50: 4.17 µM (inactive)
[31]
  GI50: 13.8 µM (inactive)
[32]
  GI50: 14.4 µM (inactive)
[33]
  GI50: 11.1 µM (inactive)
[34]
  GI50: > 100 µM (inactive)
[35]
  GI50: 18.2 µM (inactive)
[36]
  GI50: 45.5 µM (inactive)
[37]
  GI50: 5.7 µM (inactive)
[38]
  GI50: > 100 µM (inactive)
[39]
  GI50: 13.2 µM (inactive)
[40]
  GI50: 47.2 µM (inactive)
[41]
  GI50: 9.1 µM (inactive)
[42]
  GI50: > 100 µM (inactive)
[43]
  GI50: 10.1 µM (inactive)
[44]
  GI50: 13.1 µM (inactive)
[45]
  GI50: 14.6 µM (inactive)
[46]
  GI50: 20.4 µM (inactive)
[47]
  GI50: 68.5 µM (inactive)
[48]
  GI50: 35.4 µM (inactive)
[49]
  GI50: 14.4 µM (inactive)
[50]
  GI50: > 31.5 µM (inactive)
[51]
  GI50: 11.7 µM (inactive)
[52]
  GI50: 4.26 µM (inactive)
[53]
  GI50: > 62.5 µM (inactive)
[54]
  GI50: 9.66 µM (inactive)
[55]
  GI50: > 81.5 µM (inactive)
[56]
  GI50: 5.79 µM (inactive)
[57]
  GI50: 15.8 µM (inactive)
[58]
  GI50: 9.66 µM (inactive)
[59]
  GI50: > 79.1 µM (inactive)

## O=S(=O)(N=S(c1ccc(Cl)cc1)c1ccc(Cl)cc1)c1ccccc1
[1]
  GI50: 45.1 µM (inactive)
[2]
  GI50: 65.3 µM (inactive)
[3]
  GI50: > 100 µM (inactive)
[4]
  GI50: 46.8 µM (inactive)
[5]
  GI50: 19.7 µM (inactive)
[6]
  GI50: 37.5 µM (inactive)
[7]
  GI50: 56.9 µM (inactive)
[8]
  GI50: > 100 µM (inactive)
[9]
  GI50: > 100 µM (inactive)
[10]
  GI50: > 100 µM (inactive)
[11]
  GI50: 63.4 µM (inactive)
[12]
  GI50: 9.95 µM (inactive)
[13]
  GI50: 63 µM (inactive)
[14]
  GI50: 37.9 µM (inactive)
[15]
  GI50: 77.4 µM (inactive)
[16]
  GI50: 40.4 µM (inactive)
[17]
  GI50: > 100 µM (inactive)
[18]
  GI50: > 100 µM (inactive)
[19]
  GI50: 50.9 µM (inactive)
[20]
  GI50: > 100 µM (inactive)
[21]
  GI50: 88.7 µM (inactive)
[22]
  GI50: 65.8 µM
[23]
  GI50: > 100 µM (inactive)
[24]
  GI50: > 100 µM (inactive)
[25]
  GI50: 58.5 µM (inactive)
[26]
  GI50: 27.5 µM (inactive)
[27]
  GI50: > 100 µM (inactive)
[28]
  GI50: > 100 µM (inactive)
[29]
  GI50: > 100 µM (inactive)
[30]
  GI50: 59.3 µM (inactive)
[31]
  GI50: > 100 µM (inactive)
[33]
  GI50: 60.3 µM (inactive)
[34]
  GI50: 59.4 µM (inactive)
[35]
  GI50: 70.3 µM (inactive)
[36]
  GI50: > 100 µM (inactive)
[37]
  GI50: > 100 µM (inactive)
[38]
  GI50: > 100 µM (inactive)
[39]
  GI50: > 100 µM (inactive)
[40]
  GI50: > 100 µM (inactive)
[41]
  GI50: > 100 µM (inactive)
[42]
  GI50: 33.8 µM (inactive)
[43]
  GI50: 68.5 µM (inactive)
[44]
  GI50: 74.5 µM (inactive)
[45]
  GI50: 96.6 µM (inactive)
[46]
  GI50: > 100 µM (inactive)
[47]
  GI50: > 100 µM (inactive)
[48]
  GI50: > 100 µM (inactive)
[49]
  GI50: > 100 µM (inactive)
[50]
  GI50: 88.7 µM (inactive)
[51]
  GI50: > 100 µM (inactive)
[52]
  GI50: > 100 µM (inactive)
[53]
  GI50: > 100 µM (inactive)
[54]
  GI50: > 100 µM (inactive)
[55]
  GI50: 43.6 µM (inactive)
[56]
  GI50: > 100 µM (inactive)
[57]
  GI50: 47.5 µM (inactive)
[58]
  GI50: 71 µM (inactive)
[59]
  GI50: 40.7 µM (inactive)
